# Columns and labels:
# KRT17 = assay: qRT-PCR of KRT17 mRNA in MDA-MB-231 cells; type: cell-based; details: for Change in KRT17 mRNA level: MDA-MB-231, 48 h, single agents 1–15 μM, combination UNC0638 at 7.5 μM with increasing doses of GSK343; for fold induction at 10 µM: MDA-MB-231, single dose 10 μM
# Procedure: (§1) Following compound treatment of MDA-MB-231 for 48 h (in 6-well plates), media was removed and 1.5 ml of TRIzol (Invitrogen) was added directly to lyse cells and RNA was isolated according to the manufacturer’s instructions. Reverse transcription was done using the SuperScript III First-Strand Synthesis System (Invitrogen) according to the manufacturer’s instructions. Each measurement was done in triplicate, and the List of Primers can be found in Additional file 2: Table S1. For normalisation, we have used GAPDH and RNA pol II. Experiments were also done with the ‘Fast Sybr Green Cell-to-CT™-Kit’ according to the manufacturer’s instructions (Applied Biosystem). Fifteen thousand cells per 96 well were plated, and after 24 h, treated with compounds at various concentrations.
# (§2) For qRT-PCR measurements the 2x iQ SYBR Green Supermix (Bio-Rad), 200nM Primers and 0.4μl of cDNA /per 20μl reaction was used. The measurement was done in low-white 96-well plates (Bio-Rad) on a CFX96 Real-time System/C1000 Thermal Cycler (Bio-Rad) with the following protocol: 95°C for 3’; 95°C for 10’’, 56°C for 10’’, 72°C for 30’’ 42 cycles followed by a melting curve from 72°C to 95°C.
# FBXO32 = assay: qRT-PCR of FBXO32 mRNA in MDA-MB-231 cells; type: cell-based; details: for Change in FBXO32 mRNA level: MDA-MB-231, 48 h, single agents 1–15 μM, combination UNC0638 at 7.5 μM with increasing doses of GSK343; for fold induction at 10 µM: MDA-MB-231, single dose 10 μM
# Procedure: as §1, §2
# JMJD3 = assay: qRT-PCR of JMJD3 mRNA in MDA-MB-231 cells; type: cell-based; details: for Change in JMJD3 mRNA level: MDA-MB-231, 48 h, single agents 1–15 μM, combination UNC0638 at 7.5 μM with increasing doses of GSK343; for fold induction at 10 µM: MDA-MB-231, single dose 10 μM
# Procedure: as §1, §2
# EZH2 [1] = assay: qRT-PCR of EZH2 mRNA in MDA-MB-231 cells; type: cell-based; details: Homo sapiens, 48 h, normalised against GAPDH, read-out: EZH2 RNA level, fold increase compared to the mock treated sample; for fold induction at 10 µM: MDA-MB-231, single dose 10 μM
# Procedure: as §1, §2
# SPINK1 = assay: qRT-PCR of SPINK1 mRNA in MDA-MB-231 cells; type: cell-based; details: for Change in SPINK1 mRNA level: MDA-MB-231, 48 h, single agents 1–15 μM, combination UNC0638 at 7.5 μM with increasing doses of GSK343; for SPINK1 expression upon treatment: MDA-MB-231, multiple doses and time points
# Procedure: as §1, §2
# MDA-MB-231 cells [2] = assay: MTT cell viability assay; type: cell-based; details: for IC50: Homo sapiens
# Procedure: Fig. 1 MTT and mRNA levels in MDA-MB-231 cells after pharmacological inhibition and siRNA knockdown of EZH2 and EHMT2(G9a), individually and in combination. a Expression levels of KRT17, FBX032, JMJD3, EZH2, SPINK1 and EHMT2 were measured by qRT-PCR in the MDA-MB-231 cell line 48 h after transfection with siRNAs targeting EZH2 and EHMT2, both individually and in combination. All measurements were normalised to the fold-change (relative to GAPDH) in the mock transfection control. Error bars represent the mean ± SD of experiment performed in technical triplicate. b Expression levels of KRT17, FBX032, JMJD3 and SPINK1 were measured by qRT-PCR in the MDA-MB-231 cell line treated for 48 h with GSK343, UNC0638, and UNC0638 (at 7.5 μM) with increasing doses of GSK343. Each group has been compared to the untreated sample following normalisation to GAPDH. Error bars represent the mean ± SD of experiment performed in technical triplicate. c MTT assay for cell viability of MDA-MB-231 cells after treatment. MDA-MB-231 cells were seeded in 96 well plates. After 24 h, increasing doses of GSK343, UNC0638 or combination treatments (1, 2.5, 5, 7.5, 10 and 15 μM) were added to cells. Control was media with 0.5 % DMSO. Cell viability was measured by MTT assay after a 48-h treatment and a 24-h proliferation period. Error bars represent the mean ± SEM of five independent repeats
# (§3) For clonogenic assays, cells were treated with compound for 48 h, media were removed and replaced with fresh media for a further 12 days to measure colony formation. For cell viability assays, lymphoma cells were plated at 20,000 cells in 200 μl per well in U-bottom 96 well plates in RPMI medium +20 % FCS. Cells were re-suspended 48 h later, diluted 10-fold in PBS + propidium iodide (PI) and the concentration of PI negative cells was counted using an Attune flow cytometer with autosampler. Breast cancer cells were seeded at a density of 10,000 cells/well in a sterile 96 clear-well plate with 150 μl of DMEM (+10 % FCS and 2 mM L-Glutamine). Each compound treatment was performed in triplicate for 72 h at concentrations of 100 nM and 1, 5, 10 and 50 μM in 100 μl of full-medium. After 72 h, 20 μl of MTT solution (3 mg of MTT Formazan, Sigma/1 ml PBS) was added to the medium and incubated for 4 h at 37 °C in a CO2 incubator. The MTT-product was solubilised with 100 μl DMSO, and for 1 h, incubated in the dark at room temperature. The optical density was read at 570 nm with PHERAstar.
# MDA-MB-231 cells [3] = assay: Clonogenic growth assay; type: cell-based; details: Homo sapiens; MDA-MB-231, 48 h treatment then 12 days in fresh media
# Procedure: as §3
# H3K27me3 and H3K9me3 = assay: Western analysis of global histone marks in MDA-MB-231 cells; type: cell-based; details: range of doses
# Procedure: MDA-MB-231 cells seeded in 6 well plates at a cell density of 3 x 10^5 were treated with HKMTI-1-005 (1–7.5uM) for 48 h. Following lysis in Triton Extraction Buffer (TEB, PBS containing 0.5 % Triton ×100 (v/v), 1/1000 protease inhibitor), nuclei were re-suspended in 0.2 N HCL at a density of 4 x 10^7 nuclei per millilitre and incubated overnight at 4 °C to acid-extract the histones, before being centrifuged at 6500g for 10 min at 4 °C. Protein concentration was determined using the Bradford assay. H3K27me3, H3K9me3, H3K9me2, H3K9me and total H3 protein expression levels in the histone extract samples were determined using Western blot analysis using H3K27me3 (1:1000; Abcam), H3K9me3 (1:1000; Abcam), H3K9me (1:1000) and H3 (1:2000; Abcam) antibodies. After washing, the membrane was incubated with a horseradish peroxidase-labelled secondary antibody (1 h, room temperature). The membrane was incubated for 1 min with 5 mL of Pierce ECL Western blotting substrate (Thermo Scientific). Images were captured using Konica Minolta SRX101A Tabletop X-Ray film processor.
# EZH2 [4] = details: cited from earlier work
# DB = assay: Lymphoma cell growth, cell counting following propidium iodide staining; type: cell-based; details: Homo sapiens, EZH2 Mutant Y646N, 48 h, PI negative cell count
# Procedure: as §3
# DOHH2 = assay: as above; type: cell-based; details: Homo sapiens, DOHH-2, EZH2 W.T., 48 h, PI negative cell count
# Procedure: as §3
# SC1 = assay: as above; type: cell-based; details: Homo sapiens, SC-1, EZH2 W.T., 48 h, PI negative cell count
# Procedure: as §3
# SUDLH8 = assay: as above; type: cell-based; details: EZH2 W.T. (amplified), 48 h, PI negative cell count
# Procedure: as §3
# WILL1 = assay: as above; type: cell-based; details: WILL-1, EZH2 W.T., 48 h, PI negative cell count
# Procedure: as §3
# WSU-FSCLL = assay: as above; type: cell-based; details: EZH2 W.T., 48 h, PI negative cell count
# Procedure: as §3
# [5] = molecular target: trimeric PRC2 complex (EZH2:EED:SUZ12) (Homo sapiens, UniProt O75530+Q15022+Q15910); assay: PRC2 enzymatic assay (SPA-type), biotinylated-H3 (21–44) peptide substrate; type: biochemical; details: EZH2:EED:SUZ12, biotinylated-H3 (21–44) peptide substrate
# trimeric PRC2 complex (EZH2:EED:SUZ12), sequence (Q15910 whole entry): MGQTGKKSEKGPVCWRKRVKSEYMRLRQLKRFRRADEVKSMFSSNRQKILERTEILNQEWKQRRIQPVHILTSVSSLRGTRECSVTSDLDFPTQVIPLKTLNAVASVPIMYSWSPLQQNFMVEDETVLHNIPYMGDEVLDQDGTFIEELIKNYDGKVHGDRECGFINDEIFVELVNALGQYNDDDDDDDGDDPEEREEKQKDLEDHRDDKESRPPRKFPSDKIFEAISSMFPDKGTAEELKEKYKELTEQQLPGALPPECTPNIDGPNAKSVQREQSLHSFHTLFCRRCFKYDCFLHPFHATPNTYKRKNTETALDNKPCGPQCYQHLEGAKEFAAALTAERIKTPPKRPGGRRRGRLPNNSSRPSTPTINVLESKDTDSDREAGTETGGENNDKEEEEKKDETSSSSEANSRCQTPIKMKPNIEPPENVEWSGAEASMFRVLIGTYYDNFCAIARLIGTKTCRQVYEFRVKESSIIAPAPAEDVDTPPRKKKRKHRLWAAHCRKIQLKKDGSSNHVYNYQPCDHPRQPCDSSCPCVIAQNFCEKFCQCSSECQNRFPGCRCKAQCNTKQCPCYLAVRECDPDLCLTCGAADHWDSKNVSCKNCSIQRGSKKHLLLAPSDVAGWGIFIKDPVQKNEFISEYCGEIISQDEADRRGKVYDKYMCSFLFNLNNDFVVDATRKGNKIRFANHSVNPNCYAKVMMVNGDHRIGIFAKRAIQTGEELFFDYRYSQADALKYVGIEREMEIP
# trimeric PRC2 complex (EZH2:EED:SUZ12), sequence (O75530 whole entry partner): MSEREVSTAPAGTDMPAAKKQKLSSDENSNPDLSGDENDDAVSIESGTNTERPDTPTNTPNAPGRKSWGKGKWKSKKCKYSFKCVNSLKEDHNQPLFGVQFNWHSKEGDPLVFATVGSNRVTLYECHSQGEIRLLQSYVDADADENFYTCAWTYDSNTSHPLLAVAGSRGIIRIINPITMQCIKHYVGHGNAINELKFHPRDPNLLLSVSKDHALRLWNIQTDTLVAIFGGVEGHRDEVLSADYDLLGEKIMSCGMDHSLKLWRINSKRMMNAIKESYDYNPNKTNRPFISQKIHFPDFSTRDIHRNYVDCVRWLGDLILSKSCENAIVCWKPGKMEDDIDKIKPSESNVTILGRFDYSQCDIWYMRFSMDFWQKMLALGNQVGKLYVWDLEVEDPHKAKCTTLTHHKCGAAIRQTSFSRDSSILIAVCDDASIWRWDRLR
# trimeric PRC2 complex (EZH2:EED:SUZ12), sequence (Q15022 whole entry partner): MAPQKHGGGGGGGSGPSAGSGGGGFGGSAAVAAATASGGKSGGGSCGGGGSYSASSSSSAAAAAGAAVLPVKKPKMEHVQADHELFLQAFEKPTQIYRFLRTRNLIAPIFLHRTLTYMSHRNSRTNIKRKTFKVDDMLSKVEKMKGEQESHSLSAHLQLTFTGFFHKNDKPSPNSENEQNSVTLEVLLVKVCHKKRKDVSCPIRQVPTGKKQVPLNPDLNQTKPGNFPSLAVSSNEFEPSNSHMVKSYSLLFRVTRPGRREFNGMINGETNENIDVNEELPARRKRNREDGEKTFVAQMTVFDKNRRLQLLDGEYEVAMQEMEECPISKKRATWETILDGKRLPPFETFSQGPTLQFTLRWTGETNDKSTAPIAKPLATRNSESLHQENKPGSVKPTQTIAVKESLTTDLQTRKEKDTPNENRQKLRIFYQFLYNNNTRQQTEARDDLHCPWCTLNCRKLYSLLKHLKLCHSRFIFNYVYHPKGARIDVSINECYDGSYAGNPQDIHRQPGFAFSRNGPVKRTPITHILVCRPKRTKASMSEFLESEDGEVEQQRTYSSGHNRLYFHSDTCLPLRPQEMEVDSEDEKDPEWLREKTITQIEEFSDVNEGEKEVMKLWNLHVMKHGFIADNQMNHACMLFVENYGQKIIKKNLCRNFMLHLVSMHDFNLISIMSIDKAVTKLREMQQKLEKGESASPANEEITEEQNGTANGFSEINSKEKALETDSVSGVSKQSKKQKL
# Text: A trimeric PRC2 complex (EZH2:EED:SUZ12) was employed in this assay, along with a biotinylated-H3 (21–44) peptide substrate. […] Since the peptide substrates used in these assays are poor models for the complex and dynamic structure of the chromatin substrate in cells and since the only minimal number of PRC2 proteins (EZH2:EED:SUZ12) required for enzymatically active EZH2 were employed in the PRC2 assay, care should be taken in the over interpretation of this in vitro inhibitory data.
# [6] = MDA-MB-231 (Table 2), read-out: Cell viability (MTT) IC50
# [7] = Homo sapiens, 48 h, normalised against GAPDH, read-out: KRT17 RNA level, fold increase compared to the mock treated sample
# [8] = Homo sapiens, 48 h, normalised against GAPDH, read-out: FBXO32 RNA level, fold increase compared to the mock treated sample
# [9] = Homo sapiens, 48 h, normalised against GAPDH, read-out: JMJD3 RNA level, fold increase compared to the mock treated sample
structure (smiles),measurement,setting,value
"COc1cc2c(NC3CCN(C(C)C)CC3)nc(C3CCCCC3)nc2cc1OCCCN1CCCC1 [UNC0638, reference compound]",fold induction at 7.5 µM,"KRT17; Homo sapiens, 48 h, MDA-MB-231, single dose 7.5 μM, normalised against GAPDH, read-out: KRT17 RNA level, fold increase compared to the mock treated sample",1.1
same,Change in KRT17 mRNA level,KRT17,not significantly altered
same,fold induction at 7.5 µM,"FBXO32; Homo sapiens, 48 h, MDA-MB-231, single dose 7.5 μM, normalised against GAPDH, read-out: FBXO32 RNA level, fold increase compared to the mock treated sample",5.5
same,Change in FBXO32 mRNA level,FBXO32,dose-dependent upregulation
same,fold induction at 7.5 µM,"JMJD3; Homo sapiens, 48 h, MDA-MB-231, single dose 7.5 μM, normalised against GAPDH, read-out: JMJD3 RNA level, fold increase compared to the mock treated sample",3.4
same,Change in JMJD3 mRNA level,JMJD3,dose-dependent upregulation
same,fold induction at 7.5 µM,"EZH2 [1]; MDA-MB-231, single dose 7.5 μM",0.4
same,Change in SPINK1 mRNA level,SPINK1,not significantly altered
same,IC50,MDA-MB-231 cells [2]; [6],8.2 µM
same,IC50,"MDA-MB-231 cells [2]; MDA-MB-231, MTT, 48-h treatment and 24-h proliferation period (Fig. 1c), read-out: Cell viability IC50 (calculated)",9 µM
same,IC50,MDA-MB-231 cells [3],1.1 µM
same,Global levels of H3K27me3 and H3K9me3 (Western),H3K27me3 and H3K9me3,minor decrease
same,EZH2 inhibition in biochemical assays,EZH2 [4],not to significantly inhibit EZH2
"CCCc1cc(C)[nH]c(=O)c1CNC(=O)c1cc(-c2ccnc(N3CCN(C)CC3)c2)cc2c1cnn2C(C)C [GSK343, reference compound]",fold induction at 10 µM,KRT17; [7],0.9
same,Change in KRT17 mRNA level,KRT17,little change
same,fold induction at 10 µM,FBXO32; [8],1.2
same,Change in FBXO32 mRNA level,FBXO32,little change
same,fold induction at 10 µM,JMJD3; [9],1
same,Change in JMJD3 mRNA level,JMJD3,little change
same,fold induction at 10 µM,EZH2 [1],1
same,Change in SPINK1 mRNA level,SPINK1,little change
same,IC50,MDA-MB-231 cells [2]; [6],> 15 µM
same,Effect on cell viability,"MDA-MB-231 cells [2]; MDA-MB-231, MTT, up to 15 μM, 48-h treatment and 24-h proliferation period",no significant reduction in cell viability
same,IC50,MDA-MB-231 cells [3],> 50 µM
same,IC50,DB,< 1 µM
same,IC50,DOHH2,6.15 µM
same,IC50,SC1,12.1 µM
same,IC50,SUDLH8,5.11 µM
same,IC50,WILL1,17.9 µM
same,IC50,WSU-FSCLL,2.87 µM
same,Global levels of H3K27me3 and H3K9me3 (Western),H3K27me3 and H3K9me3,minor decrease
COc1cc2nc(N3CCCCC3)nc(NC3CCN(Cc4ccccc4)CC3)c2cc1OC [HKMTI-1-022],SPINK1 expression upon treatment,SPINK1,increased
same,IC50,[5],16 µM
COc1cc2c(NC3CCN(C(C)C)CC3)nc(N3CCC(F)(F)CC3)nc2cc1OCCCN1CCCC1 [UNC0642],EZH2 inhibition in biochemical assays,EZH2 [4],not to significantly inhibit EZH2
COc1cc2nc(N3CCN(c4ccccn4)CC3)nc(NC3CCN(Cc4ccccc4)CC3)c2cc1OC [HKMTI-1-011],SPINK1 expression upon treatment,SPINK1,increased
same,IC50,[5],12 µM
COc1cc2nc(N3CCCN(C)CC3)nc(NCc3ccccn3)c2cc1OC [HKMTI-1-013],fold induction at 10 µM,KRT17; [7],0.78
same,fold induction at 10 µM,FBXO32; [8],0.93
same,fold induction at 10 µM,JMJD3; [9],0.87
same,fold induction at 10 µM,EZH2 [1],0.13
COc1cc2nc(N3CCCC(CO)C3)nc(NC3CCN(C)CC3)c2cc1OC (stereo not drawn) [HKMTI-1-012],fold induction at 10 µM,KRT17; [7],1.32
same,fold induction at 10 µM,FBXO32; [8],1.06
same,fold induction at 10 µM,JMJD3; [9],0.9
same,fold induction at 10 µM,EZH2 [1],1.38
COc1cc2nc(NCCCN(C)C)nc(NC3CCN(Cc4ccccc4)CC3)c2cc1OC [HKMTI-1-002],fold induction at 10 µM,KRT17; [7],0.66
same,fold induction at 10 µM,FBXO32; [8],1.12
same,fold induction at 10 µM,JMJD3; [9],1.57
same,fold induction at 10 µM,EZH2 [1],0.86
"COc1cc2nc(N3CCCN(C)CC3)nc(NC3CCN(Cc4ccccc4)CC3)c2cc1OC [BIX01294, reference compound]",fold induction at 10 µM,KRT17; [7],1.06
same,fold induction at 10 µM,FBXO32; [8],3.34
same,fold induction at 10 µM,JMJD3; [9],2.7
same,fold induction at 10 µM,EZH2 [1],0.87
same,IC50,MDA-MB-231 cells [2]; [6],9.6 µM
same,IC50,MDA-MB-231 cells [3],1.4 µM

# From PMC4545913, “Dual EZH2 and EHMT2 histone methyltransferase inhibition increases biological efficacy in breast cancer cells” (Clinical Epigenetics, 2015)
